Values of other authors, collected in patent US20230149379A1, “COMBINATION THERAPY FOR ACUTE MYELOID LEUKEMIA” (Celgene Corporation, priority 2020, published 2023).

Legend:
[1] = system: R/R AML; settings: stepwise dosing
[2] = system: AML at relapse; settings: administered alone

Molecule | tumor lysis syndrome [1] | response in treating AML at relapse [2]
CC1(C)CCC(CN2CCN(c3ccc(C(=O)NS(=O)(=O)c4ccc(NCC5CCOCC5)c([N+](=O)[O-])c4)c(Oc4cnc5[nH]ccc5c4)c3)CC2)=C(c2ccc(Cl)cc2)C1 [Venetoclax, 4-[4-[[2-(4-chlorophenyl)-4,4-dimethylcyclohexen-1-yl]methyl]piperazin-1-yl]-N-[3-nitro-4-(oxanylmethylamino)phenyl]sulfonyl-2-(1H-pyrrolo[2,3-b]pyridin-5-yloxy)benzamide] | did not occur | –
CT-011: anti-PD-1 antibody, a humanized antibody | – | failed to show response
